The record followed here is patent US12195428B2, “Charged ion channel blockers and methods for use” (Nocion Therapeutics, Inc., priority 2019, dated 2025).

Each structure is given as a SMILES string.

In data set [1] the target is T1, NaV1.7 (Homo sapiens, UniProt Q15858).
T1 construct: expressed in transfected cells; host or cells: unnamed tetracycline-inducible cell line, kept under hygromycin and blasticidin selection
Put plainly: Nav1.7 intracellular inhibition (internal block), whole cell patch clamp. Conditions: % inhibition at 1 μM test concentration, compound in internal solution, 5 Hz stimulation. The class given is cell-based. The protocol: (§1) Representative compounds of the invention were synthesized according to the described methods and tested for the ability to inhibit voltage-gated sodium channels.
(§2) NaV1.7 was expressed upon induction with tetracycline. Cells were cultured in DMEM containing 10% dialyzed Fetal Bovine Serum (VWR, Radnor, PA), 1% Glutamax (VWR, Radnor, PA), 1% Penicillin-Streptomycin (VWR, Radnor, PA), 100 mg/L Hygromycin (Thermo Fisher Scientific, Waltham, MA and 5 mg/L Blasticidin (Alfa Aesar, Haverhill, MA). Cells were grown and maintained at 37° C. in a humidified environment containing 10% CO2 in air. Cells were detached from the culture flask for passage and harvested using 0.05% Trypsin-EDTA (Thermo Fisher Scientific, Waltham, MA). To induce NaV1.7, cells were induced with tetracycline ([…], IBI Scientific, Peosta, IA) the day before recording and plated onto 24-well plates. Cells were washed with DPBS (VWR, Radnor, PA), trypsinized and then triturated five times in 10 mL of growth media to break apart cell aggregates. For one 24-well plate, 2 mL of cell suspension was mixed with 23 mL of fresh growth media and […] tetracycline added. 1 ml of mixed media with cells was then added to each well of a 24-well plate, with a 12 mm coverslip already placed in the bottom of the well. Cells were then incubated in 37° C. and 10% CO2 overnight.
(§3) The intracellular solution contained the following (in mM) CsCl 135, NaCl 10, EGTA 10, HEPES 10, MgCl2 2, adjusted to pH 7.2 with CsOH. The external solution was a normal Ringer solution containing (in mM) NaCl 155, HEPES 10, glucose 10, KCl 3.5, CaCl2) 1.5, MgCl2 1 adjusted to pH 7.4 with NaOH. CsCl is from Alfa Aesar, Haverhill, MA. All other chemicals are from Sigma-Aldrich, St. Louis, MO. In order to test the degree of internal block by test compounds the compounds were dissolved in internal solution at the indicated test concentration. […] In order to test the degree of external block by test compounds the compounds were dissolved in external solution at the indicated test concentration.
(§4) 18-24 hours after cells were induced with tetracycline, coverslips were placed into a chamber filled with Normal Ringer solution at room temperature and the chamber placed on a microscope. Pipettes were pulled from borosilicate glass on a P97 puller (Sutter Instrument, Novato, CA) and polished with a MF-830 Microforge (Narishige International USA, Inc, Amityville, NY) to have a resistance of 1.5-2.5 MΩ when filled with CsCl internal solution at room temperature. Healthy cells (those that are round and translucent with no visible blemishes) were chosen for seal formation. A seal was formed between the pipette and the cell, and a brief pulse of suction was used to “break in” and establish the whole-cell configuration. The membrane potential was held at −100 mV before the voltage protocol began. Only cells with series resistance between 1.5-5 MΩ were retained for analysis. The voltage protocol was as follows: Cells were held at −100 mV for 12 ms followed by a hyperpolarizing step to −105 mV for 12 ms to monitor the leak. Cells were then stepped back to −100 mV for 40 ms. Cells were then depolarized to −20 mV for 10 ms and then returned to −100 mV for 26 ms.
Once the recording was started, the voltage protocol was run at 30 second intervals for 5 minutes to get a stable baseline. This was followed by four 30-second periods of 5 Hz stimulation of the same voltage protocol separated by 1 minute of rest which was then followed by 0.33 Hz stimulation after the last train. Currents were recorded using PatchMaster software with Heka EPC10 (HEKA Electronics, Lambrecht, Germany). Only cells with inward current amplitudes at −20 mV between 400 pA and 4 nA were accepted. In addition, cells having leak currents greater than 10% of their current amplitudes were discarded. […]

Data set [2] addresses T1, NaV1.7. The data set can be described thus: Nav1.7 extracellular inhibition (external block), whole cell patch clamp. Conditions: compound in external solution for 5 minutes, 5 Hz stimulation; for inhibition at 10 µM: % inhibition at 10 μM test concentration; for inhibition at 30 µM: % inhibition at 30 μM test concentration. The class given is cell-based. How it is done: as §1, §2, §3, §4
Once the recording was started, the voltage protocol was run at 30 second intervals for 5 minutes to get a stable baseline. […] Currents were recorded using PatchMaster software with Heka EPC10 (HEKA Electronics, Lambrecht, Germany). […]
A general note: Patch clamp records ionic current or voltage across a cell membrane.

A short description of data set [3]: PAMPA membrane permeability assay. Format: in vitro ADME. The note with it: pH 7.4 buffer, GIT lipid, 4 hours incubation. The protocol: The PAMPA assay (pION, Inc., Woburn MA) was used to determine the ability of compounds of the invention to cross an artificial lipid membrane by passive diffusion. Test compounds were dissolved in DMSO (10 mM) and diluted 200-fold in buffer (pION Inc., pH 7.4) to provide 50 uM stock solutions. Buffer (150 μL) was added to a UV blank plate and stock solutions (150 μL) were transferred to a UV reference plate. The blank and reference spectrum were read using a spectrophotometer. Stock solutions (200 μL) were added to the donor plate of the PAMPA sandwich plate and an accept plate painted with GIT lipid (pION Inc, 5 μL) was placed on top. Buffer (200 μL) was added to the acceptor plate and the PAMPA sandwich plate was incubated for 4 hours. Aliquots (150 μL) from the acceptor plate were added to a UV plate and read as acceptor spectrum. Aliquots (150 μL) of the donor solutions were added to a UV analysis plate and read as donor spectrum. The permeability coefficient of test compounds was calculated using PAMPA Explorer™ software (version 3.5.0.4) based on the AUC of the reference plate, the donor plate, and the acceptor plate.

T1 sequence (Q15858 whole entry): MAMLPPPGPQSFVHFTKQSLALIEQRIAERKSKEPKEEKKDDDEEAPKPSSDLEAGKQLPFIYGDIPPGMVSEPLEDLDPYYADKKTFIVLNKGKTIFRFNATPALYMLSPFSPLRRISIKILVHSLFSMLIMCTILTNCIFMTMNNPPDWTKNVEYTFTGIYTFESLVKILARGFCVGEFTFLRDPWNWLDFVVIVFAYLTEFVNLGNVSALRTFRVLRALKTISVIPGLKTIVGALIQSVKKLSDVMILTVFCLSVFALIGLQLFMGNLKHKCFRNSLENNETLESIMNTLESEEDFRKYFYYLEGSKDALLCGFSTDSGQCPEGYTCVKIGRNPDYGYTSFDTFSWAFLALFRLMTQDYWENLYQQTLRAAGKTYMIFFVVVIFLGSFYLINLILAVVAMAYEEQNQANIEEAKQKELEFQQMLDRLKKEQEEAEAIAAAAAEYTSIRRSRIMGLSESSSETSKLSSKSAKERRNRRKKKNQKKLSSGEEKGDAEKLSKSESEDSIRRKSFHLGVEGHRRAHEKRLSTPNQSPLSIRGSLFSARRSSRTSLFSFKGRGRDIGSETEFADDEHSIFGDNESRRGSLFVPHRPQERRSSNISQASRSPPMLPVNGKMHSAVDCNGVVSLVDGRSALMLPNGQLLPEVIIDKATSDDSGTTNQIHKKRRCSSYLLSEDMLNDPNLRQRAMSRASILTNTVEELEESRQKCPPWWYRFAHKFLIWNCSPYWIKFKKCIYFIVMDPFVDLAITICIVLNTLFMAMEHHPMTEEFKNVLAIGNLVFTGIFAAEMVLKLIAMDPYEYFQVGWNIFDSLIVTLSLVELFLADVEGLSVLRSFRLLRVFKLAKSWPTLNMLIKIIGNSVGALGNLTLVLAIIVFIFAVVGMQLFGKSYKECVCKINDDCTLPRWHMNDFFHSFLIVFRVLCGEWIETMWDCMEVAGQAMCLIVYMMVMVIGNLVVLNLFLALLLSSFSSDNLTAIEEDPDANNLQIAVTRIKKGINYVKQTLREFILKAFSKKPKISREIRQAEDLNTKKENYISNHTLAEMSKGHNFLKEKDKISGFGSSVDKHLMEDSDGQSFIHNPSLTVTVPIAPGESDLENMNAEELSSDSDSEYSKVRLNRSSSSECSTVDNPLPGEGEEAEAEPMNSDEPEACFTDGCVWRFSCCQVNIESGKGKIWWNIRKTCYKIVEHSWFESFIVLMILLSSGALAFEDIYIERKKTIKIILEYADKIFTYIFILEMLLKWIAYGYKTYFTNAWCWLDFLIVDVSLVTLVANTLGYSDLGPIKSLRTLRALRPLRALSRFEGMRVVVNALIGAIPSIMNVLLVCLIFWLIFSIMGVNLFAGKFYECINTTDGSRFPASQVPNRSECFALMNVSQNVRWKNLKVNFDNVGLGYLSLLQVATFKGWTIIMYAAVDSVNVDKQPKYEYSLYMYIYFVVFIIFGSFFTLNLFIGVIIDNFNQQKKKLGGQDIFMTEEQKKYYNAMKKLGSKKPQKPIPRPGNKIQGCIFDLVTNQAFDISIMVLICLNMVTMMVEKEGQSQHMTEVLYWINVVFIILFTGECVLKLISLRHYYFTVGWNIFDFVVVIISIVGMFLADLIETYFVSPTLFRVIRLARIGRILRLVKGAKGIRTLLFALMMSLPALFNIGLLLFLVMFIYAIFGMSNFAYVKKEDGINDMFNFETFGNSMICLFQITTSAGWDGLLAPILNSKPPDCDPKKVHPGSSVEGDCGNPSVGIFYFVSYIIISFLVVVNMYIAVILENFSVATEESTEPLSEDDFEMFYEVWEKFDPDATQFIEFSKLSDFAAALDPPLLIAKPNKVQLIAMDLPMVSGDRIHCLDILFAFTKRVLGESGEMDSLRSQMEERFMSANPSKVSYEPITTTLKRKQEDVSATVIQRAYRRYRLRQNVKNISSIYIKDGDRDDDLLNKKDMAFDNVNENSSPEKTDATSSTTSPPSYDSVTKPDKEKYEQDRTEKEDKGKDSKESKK

A word on the inhibition: it is the relative decrease from the control value, in per cent. Higher therefore signals a strong effect. Compound `CC[N+]1(CC(=O)Nc2c(C)cccc2C)CCCC(c2ccccc2)C1` (stereo not drawn) [Compound 1A, 1-(2-((2,6-dimethylphenyl)amino)-2-oxoethyl)-1-ethyl-3-phenylpiperidin-1-ium iodide] had an inhibition at 1 µM in data set [1] of more than 90%.

Take `CC[N+]1(CC(=O)Nc2c(C)cccc2C)CCC[C@@H](c2ccccc2)C1.[I-]` (stereo partly drawn) [Compound 2A]: in data set [1], the inhibition at 1 µM is more than 90%. In data set [2], this compound registered an inhibition at 10 µM of less than 30%. Moreover, the “PAMPA (10^−6 cm/s)” value in data set [3] is “+ (“+” (<0.1 10^−6 cm/s))”.

In data set [1], `CC[N+]1(CC(=O)Nc2c(C)cccc2C)CCC[C@H](c2ccccc2)C1.[I-]` (stereo partly drawn) [Compound 3A] registered an inhibition at 1 µM of more than 90%. For the same compound, the inhibition at 10 µM in data set [2] lay in the range of 30 to 70%. Besides, the “PAMPA (10^−6 cm/s)” value in data set [3] is “+ (“+” (<0.1 10^−6 cm/s))”.

With `Cc1cccc(C)c1NC(=O)C[N+]1(C)CCCC(c2ccccc2)C1.[I-]` (stereo not drawn) [Compound 4A], in data set [1], the inhibition at 1 µM fell in the range of 70 to 90%. Moreover, the “PAMPA (10^−6 cm/s)” value in data set [3] is recorded as “+ (“+” (<0.1 10^−6 cm/s))”.

`CC[N+]1(CC(=O)Nc2c(C)cccc2C)CCCCC1c1ccccc1` (stereo not drawn) [Compound 5A]: the inhibition at 1 µM in data set [1] lay in the range of 70 to 90%. Also, the inhibition at 30 µM in data set [2] was in the range of 30 to 70%. Also, the “PAMPA (10^−6 cm/s)” value in data set [3] is “+ (“+” (<0.1 10^−6 cm/s))”.

In data set [1], `CCC[N+]1(CC(=O)Nc2c(C)cccc2C)CCCC(c2ccccc2)C1` (stereo not drawn) [Compound 6A] displayed an inhibition at 1 µM of more than 90%. The compound also returned an inhibition at 10 µM in data set [2] of 30 to 70%. The “PAMPA (10^−6 cm/s)” value in data set [3] is listed as “+ (“+” (<0.1 10^−6 cm/s))”.

In data set [1], `Cc1cccc(C)c1NC(=O)C[N+]1(C)CCCCC1c1ccccc1.[I-]` (stereo not drawn) [Compound 8A] displayed an inhibition at 1 µM of 30 to 70%. Moreover, in data set [2], the inhibition at 30 µM lay in the range of 30 to 70%. In data set [3], the “PAMPA (10^−6 cm/s)” value is “+ (“+” (<0.1 10^−6 cm/s))”.

The compound `COC(=O)C[N+]1(CC(=O)Nc2c(C)cccc2C)CCCCC1c1ccccc1` (stereo not drawn) [Compound 9A] registered an inhibition at 1 µM in data set [1] of 30 to 70%. Besides, the “PAMPA (10^−6 cm/s)” value in data set [3] was “+ (“+” (<0.1 10^−6 cm/s))”.

On to `CCC[N+]1(CC(=O)Nc2c(C)cccc2C)CCCCC1c1ccccc1` (stereo not drawn) [Compound 10A], for which the inhibition at 1 µM in data set [1] fell in the range of 30 to 70%.
